In patent US11884652B2, “Tetrazole derivatives as TRPA1 inhibitors” (Boehringer Ingelheim International GmbH, priority 2020, dated 2024):

Legend:
human TRPA1 ion channel = molecular target: T1, human TRPA1 ion channel (Homo sapiens, UniProt O75762); experiment: Assay A: TRPA1 assay (FLIPR, AITC-induced calcium, HEK293 cells); type: cell-based; settings: read-out: hTRPA1 IC50
T1 construct: host or cells: HEK293
Experimental: A human HEK293 cell line over-expressing the human TRPA1 ion channel (Perkin Elmer, Product No. AX-004-PCL) is used as a test system for compound efficacy and potency. Compound activity is determined by measuring the effect of compounds on intracellular calcium concentration induced by AITC (Allylisothiocyanat) agonism in a FLIPRtetra system (Molecular Devices).
The cells are obtained as frozen cells in cryo-vials and stored until use at −150° C. Cells are grown in culture medium (MEM/EBSS medium with 10% FCS and 0.4 mg/ML Geneticin). […] For sub-culturing cells are detached from flasks by Versene. At the day before the assay, cells are detached, washed twice with medium (MEM/EBSS medium with 10% FCS) and 20000 cells in 20 μl/well are seeded to Poly D-Lysin biocoated 384-well plates (black, clear bottom, Cat. 356697) from Corning. Plates are incubated for 24 hours at 37° C./5% CO2 before use in the assay.
The test compounds are dissolved in 100% DMSO at a concentration of 10 mM and in a first step diluted in DMSO to a concentration of 5 mM, followed by serial dilution steps in 100% DMSO. Dilution factor and number of dilution steps may vary according to needs. Typically 8 different concentrations by 1:5 dilutions are prepared, further intermediate dilutions (1:20) of the substances are carried out with HBSS/HEPES buffer (1×HEPES, Cat. 14065 from Gibco, 20 mM HEPES, Cat. 83264 from SIGMA, 0.1% BSA Cat. 11926 from Invitrogen, pH 7.4
At the assay day cells are washed 3× with assay puffer, 20 μL buffer remaining in the wells after washing. 10 μL Ca6 kit (Cat. R8191 MolecularDevices) loading buffer in HBSS/HEPES is added to the cells and the plates are incubated with lid for 120 minutes at 37°/5% CO2. 10 μL of compound or controls in HBSS/HEPES buffer/5% DMSO from the intermediate dilution plate are carefully added to the wells. […] Finally 10 μL of the agonist AITC 50 μM dissolved in HBSS/HEPES buffer/0.05% DMSO (final concentration 10 μM) is added to the wells followed by an additional read on the FLIPRtetra device for 10 minutes. The area under the signal curve (AUC) after AITC addition is used for IC50/% inhibition calculations
Data Evaluation and Calculation:
Each assay microtiter plate contains wells with vehicle (1% DMSO) controls instead of compound as controls for AITC induced luminescence (100% CTL; high controls) and wells with vehicle controls without AITC as controls for non-specific changes in luminescence (0% CTL; low controls).
The analysis of the data is performed by the calculation of the area under signal curve of the individual wells. Based on this values the % value for the measurement of each substance concentration is calculated (AUC(sample)−AUC(low))*100/(AUC(high)−AUC(low)) using MegaLab software (in house development). The IC50 values are calculated from the % control values using MegaLab software. Calculation: [y=(ad)/(1+(x/c)^b)+d], a=low value, d=high value; x=conc M; c=IC50 M; b=hill; y=% ctrl

[1] = Assay B: Microsomal clearance; type: in vitro ADME, human; settings: pooled liver microsomes 1 mg/ml, 1 μM compound, NADPH, 37° C.; clearance as % of hepatic blood flow
Experimental: Assay B: Microsomal Clearance:
The metabolic degradation of the test compound is assayed at 37° C. with pooled liver microsomes. The final incubation volume of 100 μl per time point contains TRIS buffer pH 7.6 at RT (0.1 M), magnesium chloride (5 mM), microsomal protein (1 mg/ml) and the test compound at a final concentration of 1 μM.
Following a short preincubation period at 37° C., the reactions are initiated by addition of beta-nicotinamide adenine dinucleotide phosphate, reduced form (NADPH, 1 mM) and terminated by transferring an aliquot into solvent after different time points (0, 5, 15, 30, 60 min). Additionally, the NADPH-independent degradation is monitored in incubations without NADPH, terminated at the last time point. The [%] remaining test compound after NADPH independent incubation is reflected by the parameter c(control) (metabolic stability). The quenched incubations are pelleted by centrifugation (10000 g, 5 min).
An aliquot of the supernatant is assayed by LC-MS/MS for the amount of parent compound. The half-life (t½ INVITRO) is determined by the slope of the semilogarithmic plot of the concentration-time profile.
The intrinsic clearance (CL_[…]) is calculated by considering the amount of protein in the incubation: CL_[…] [μl/min/mg protein]=(Ln 2/(half-life [min]*protein content [mg/ml]))*1000 CL_[…]_INVIVO [ml/min/kg]=(CL_[…] [μL/min/mg protein]×MPPGL [mg protein/g liver]×liver factor [g/kg bodyweight])/1000 Qh[%]=CL[ml/min/kg]/hepatic blood flow [ml/min/kg])
(§1) Hepatocellularity, human: 120×10e6 cells/g liver
(§2) Liver factor, human: 25.7 g/kg bodyweight
(§3) Blood flow, human: 21 ml/(min×kg)

[2] = Assay C: Hepatocyte clearance; type: in vitro ADME, human; settings: hepatocyte suspension, 1 μM compound, 6 h; predicted clearance as % of hepatic blood flow
Experimental: Assay C: Hepatocyte Clearance
The metabolic degradation of the test compound is assayed in a hepatocyte suspension. Hepatocytes (cryopreserved) are incubated in Dulbecco's modified eagle medium (supplemented with 3.5 μg glucagon/500 mL, 2.5 mg insulin/500 mL and 3.75 mg/500 mL hydrocortison) containing 5% or 50% species serum.
The cells are incubated for six hours (incubator, orbital shaker) and samples ([…]) are taken at 0, 0.5, 1, 2, 4 and 6 hours. Samples are transferred into acetonitrile and pelleted by centrifugation (5 min). The supernatant is transferred to a new 96-deepwell plate, evaporated under nitrogen and resuspended.
Decline of Parent Compound is Analyzed by HPLC-MS/MS
CLint is calculated as follows CL_[…]=Dose/AUC=(C0/CD)/(AUD+clast/k)×1000/60. C0: initial concentration in the incubation [μM], CD: cell density of vital cells [10e6 cells/mL], AUD: area under the data [μM×h], clast: concentration of last data point [μM], k: slope of the regression line for parent decline [h−1].
The calculated in vitro hepatic intrinsic clearance can be scaled up to the intrinsic in vivo hepatic Clearance and used to predict hepatic in vivo blood clearance (CL) by the use of a liver model (well stirred model). CL_[…]_INVIVO [ml/min/kg]=(CL_[…] [μL/min/10e6 cells]×hepatocellularity [10e6 cells/g liver]×liver factor [g/kg bodyweight])/1000 CL[ml/min/kg]=CL_[…]_INVIVO [ml/min/kg]×hepatic blood flow [ml/min/kg]/(CL_[…]_INVIVO [ml/min/kg]+hepatic blood flow [ml/min/kg]) Qh[%]=CL[ml/min/kg]/hepatic blood flow [ml/min/kg])
as §1, §2, §3

T1 sequence (O75762 whole entry): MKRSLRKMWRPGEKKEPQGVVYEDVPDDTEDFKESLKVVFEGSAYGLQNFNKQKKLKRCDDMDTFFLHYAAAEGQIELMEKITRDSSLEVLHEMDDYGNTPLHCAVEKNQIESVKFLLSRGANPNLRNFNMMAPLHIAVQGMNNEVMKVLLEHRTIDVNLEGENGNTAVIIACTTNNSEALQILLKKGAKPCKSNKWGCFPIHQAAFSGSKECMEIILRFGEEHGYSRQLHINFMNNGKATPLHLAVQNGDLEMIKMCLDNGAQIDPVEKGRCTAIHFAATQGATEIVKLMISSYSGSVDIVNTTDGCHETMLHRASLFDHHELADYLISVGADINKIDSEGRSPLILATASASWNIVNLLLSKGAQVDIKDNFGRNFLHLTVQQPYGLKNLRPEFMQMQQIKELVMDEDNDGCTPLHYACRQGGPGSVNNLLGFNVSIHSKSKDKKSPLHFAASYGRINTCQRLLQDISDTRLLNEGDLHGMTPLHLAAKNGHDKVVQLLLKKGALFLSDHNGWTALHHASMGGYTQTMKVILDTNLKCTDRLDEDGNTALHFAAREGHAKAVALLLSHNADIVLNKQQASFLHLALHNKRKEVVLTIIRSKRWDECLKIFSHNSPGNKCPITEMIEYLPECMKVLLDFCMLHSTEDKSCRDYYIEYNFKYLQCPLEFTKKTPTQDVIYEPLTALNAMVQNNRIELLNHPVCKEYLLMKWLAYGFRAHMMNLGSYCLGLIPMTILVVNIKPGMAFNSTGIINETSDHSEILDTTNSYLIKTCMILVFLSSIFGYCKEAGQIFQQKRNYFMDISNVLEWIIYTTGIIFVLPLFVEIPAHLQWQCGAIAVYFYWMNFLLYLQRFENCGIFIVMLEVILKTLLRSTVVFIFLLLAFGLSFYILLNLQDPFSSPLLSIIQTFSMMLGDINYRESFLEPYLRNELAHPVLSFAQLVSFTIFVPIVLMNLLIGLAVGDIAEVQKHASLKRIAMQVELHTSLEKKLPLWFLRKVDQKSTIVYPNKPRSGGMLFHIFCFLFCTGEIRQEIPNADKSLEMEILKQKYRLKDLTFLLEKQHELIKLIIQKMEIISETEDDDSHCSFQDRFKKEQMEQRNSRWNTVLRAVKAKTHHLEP

| SMILES | IC50 (human TRPA1 ion channel) [nM] | human LM [% Qh] [1] [% Qh] | human Hepatocytes [% Qh] [2] [% Qh] |
| --- | --- | --- | --- |
| Cn1c(=O)c(C(N)=O)cn(Cc2nnn(C[C@H](O)c3cc4ccc(F)cc4o3)n2)c1=O [Example 12] | 110 | <23 | 16 |
| CCNC(=O)c1cn(Cc2nnn(C[C@H](O)c3ccc(Cl)cc3)n2)c(=O)n(C)c1=O [Example 34] | 297 | 43 | 44 |
| Cn1c(=O)c(C(=O)NCCF)cn(Cc2nnn(C[C@H](O)c3ccc(Cl)cc3)n2)c1=O [Example 33] | 116 | 57 | 28 |
| Cn1c(=O)c(C(N)=O)cn(Cc2nnn(C[C@H](O)c3ccc4c(c3)OCO4)n2)c1=O [Example 11] | 105 | <23 | <4 |
| Cn1c(=O)c(C(=O)NCC2CC2)cn(Cc2nnn(C[C@H](O)c3ccc(Cl)cc3)n2)c1=O [Example 32] | 92 | 52 | 45 |
| NC(=O)c1cn(Cc2nnn(C[C@H](O)c3ccc(Cl)cc3)n2)c(=O)n(C2CCC2)c1=O [Example 18] | 33 | 38 | 39 |
| CCn1c(=O)c(C(N)=O)cn(Cc2nnn(C[C@H](O)c3ccc(Cl)cc3)n2)c1=O [Example 19] | 62 | <23 | 5 |
| Cn1c(=O)c(C(N)=O)cn(Cc2nnn(C[C@H](O)c3cc4ccc(F)cc4s3)n2)c1=O [Example 3] | 18 | 26 | 27 |
| Cn1c(=O)c(C(N)=O)cn(Cc2nnn(C[C@H](O)c3cc4cc(Cl)ccc4o3)n2)c1=O [Example 6] | 42 | <23 | 15 |
| Cn1c(=O)c(C(N)=O)cn(Cc2nnn(C[C@H](O)c3cc4ccccc4s3)n2)c1=O [Example 2] | 18 | <23 | 13 |
| Cn1c(=O)c(C(=O)NCCn2cccn2)cn(Cc2nnn(C[C@H](O)c3ccc(Cl)cc3)n2)c1=O [Example 35] | 33 | <23 | 19 |
| Cn1c(=O)c(C(N)=O)cn(Cc2nnn(C[C@H](O)c3ccc(C#N)s3)n2)c1=O [Example 14] | 156 | <23 | 4 |
| Cn1c(=O)c(C(N)=O)cn(Cc2nnn(C[C@H](O)c3ccc4oc(F)cc4c3)n2)c1=O [Example 4] | 34 | <23 | 8 |
| Cn1c(=O)c(C(N)=O)cn(Cc2nnn(C[C@H](O)c3ccc(Cl)s3)n2)c1=O [Example 10] | 92 | <23 | 15 |
| Cn1c(=O)c(C(=O)NCCn2ccnc2)cn(Cc2nnn(C[C@H](O)c3ccc(Cl)cc3)n2)c1=O [Example 29] | 229 | 53 | 27 |
| Cn1c(=O)c(C(N)=O)cn(Cc2nnn(C[C@H](O)c3cc(Cl)c(Cl)s3)n2)c1=O [Example 5] | 26 | <23 | 43 |
| Cn1c(=O)c(C(N)=O)cn(Cc2nnn(C[C@H](O)c3ccc(Br)cc3)n2)c1=O [Example 7] | 56 | <23 | <4 |
| Cn1c(=O)c(C(N)=O)cn(Cc2nnn(C[C@H](O)c3cc4ccccc4o3)n2)c1=O [Example 9] | 72 | <23 | 7 |
| Cn1c(=O)c(C(=O)NCCN2CCOCC2)cn(Cc2nnn(C[C@H](O)c3ccc(Cl)cc3)n2)c1=O [Example 24] | 39 | 38 | 28 |
| COCCn1c(=O)c(C(N)=O)cn(Cc2nnn(C[C@H](O)c3ccc(Cl)cc3)n2)c1=O [Example 21] | 258 | <23 | 15 |
| CN1CCOCC1CNC(=O)c1cn(Cc2nnn(C[C@H](O)c3ccc(Cl)cc3)n2)c(=O)n(C)c1=O (stereo partly drawn) [Example 25] | 43 | 55 | 42 |
| NC(=O)c1cn(Cc2nnn(C[C@H](O)c3ccc(Cl)cc3)n2)c(=O)n(CC2CC2)c1=O [Example 20] | 64 | <23 | 15 |
| COCCNC(=O)c1cn(Cc2nnn(C[C@H](O)c3ccc(Cl)cc3)n2)c(=O)n(C)c1=O [Example 22, 1-({2-[(2R)-2-(4-chlorophenyl)-2-hydroxyethyl]-2H-1,2,3,4-tetrazol-5-yl}methyl)-N-(2-methoxyethyl)-3-methyl-2,4-dioxo-1,2,3,4-tetrahydropyrimidine-5-carboxamide] | 23 | <23 | 25 |
| CC(C)Cn1c(=O)c(C(N)=O)cn(Cc2nnn(C[C@H](O)c3ccc(Cl)cc3)n2)c1=O [Example 17] | 213 | 42 | 49 |
| Cn1ccnc1CNC(=O)c1cn(Cc2nnn(C[C@H](O)c3ccc(Cl)cc3)n2)c(=O)n(C)c1=O [Example 26] | 100 | 52 | 21 |
